Test results published in patent US9365511B2, “Biphenyl-ethyl-pyrrolidine derivatives as histamine H3 receptor modulators for the treatment of cognitive disorders” (Arena Pharmaceuticals, Inc., priority 2013, dated 2016).
Entries after “also recorded” stand apart in the source; their conditions may differ.

Assays:
human H3 receptor = human H3 receptor (Homo sapiens (Human), UniProt Q9Y5N1); test: Human H3 receptor HTRF cAMP assay; assay type: cell-based; details: HEK293 cells expressing the human H3 receptor, forskolin 2 μM; read-out: IC50 H3R
Excerpt: Homogeneous time-resolved fluorescence assays (HTRF®, Cisbio) detect levels of cAMP in lysed cell preparations using a europium or terbium cryptate-labeled anti-cAMP antibody and fluorophore-labeled cAMP (cAMP-d2). In the absence of exogenous cAMP, the anti-cAMP antibody binds to cAMP-d2. Photoexcitation of the cryptate donor results in a combination of cryptate emission at 620 nm and fluorescence resonance energy transfer (FRET) from the cryptate to the acceptor d2 fluorophore, which then fluoresces at 665 nm. The 620/665 nm emission ratio is monitored. In the presence of exogenous cAMP, which competes with cAMP-d2 for binding to the anti-cAMP antibody, FRET is decreased and the […], providing a sensitive and accurate means to measure cAMP levels in biological assays.
Compounds of the present invention were evaluated using the human H3 receptor (H3R) HTRF cAMP assay. In this assay, HEK293 cells expressing the human H3 receptor were suspended in PBS containing 100 μM IBMX and plated into 384-well assay plates (Perkin Elmer Proxiplate 384-Plus; 15,000 cells per well; 5 μL plating volume) and allowed to equilibrate for an hour. Test compounds were serially diluted in 100% DMSO and then further diluted in PBS containing forskolin (2 μM). Test compounds (5 μL) were then added to the assay plate and the mixture was incubated for 1 hour. HTRF assay reagents (Cisbio, Dynamic 2 cAMP Kit), cAMP-d2 and cryptate-labeled anti-cAMP antibody, are mixed with cell lysis buffer and added to the assay plate. After 1-hour incubation with these reagents, the assay plate was read on an HTRF-compatible microplate reader (Perkin Elmer EnVision or BMG Pherastar). A cAMP standard curve was included on each assay plate and HTRF emission ratios for test compounds were fit to this curve to generate accurate measures of cAMP levels in each test well.

[1] = test system: histamine-induced scratching behavior in mice; test: Histamine-induced model for pruritus (Example 6); assay type: in vivo, C57BL/6j male mice; details: oral administration, histamine s.c. 30 min post-dosing, bouts counted 5-15 min, FIG. 6
Procedure: H3R inhibitors, Compound 3 and Compound 11, were dissolved in 0.5% methylcellulose at the appropriate concentration and 100 μL were administered orally to 8-week-old C57BL/6j male mice. Thirty minutes post-dosing, 25 μL of 40 mg/mL histamine solution was injected subcutaneously at the rostral part of the back. Mice were video recorded and the number of scratching bouts that occurred between 5 and 15 minutes was counted after histamine injection.

human H3 receptor, sequence (Q9Y5N1 whole entry): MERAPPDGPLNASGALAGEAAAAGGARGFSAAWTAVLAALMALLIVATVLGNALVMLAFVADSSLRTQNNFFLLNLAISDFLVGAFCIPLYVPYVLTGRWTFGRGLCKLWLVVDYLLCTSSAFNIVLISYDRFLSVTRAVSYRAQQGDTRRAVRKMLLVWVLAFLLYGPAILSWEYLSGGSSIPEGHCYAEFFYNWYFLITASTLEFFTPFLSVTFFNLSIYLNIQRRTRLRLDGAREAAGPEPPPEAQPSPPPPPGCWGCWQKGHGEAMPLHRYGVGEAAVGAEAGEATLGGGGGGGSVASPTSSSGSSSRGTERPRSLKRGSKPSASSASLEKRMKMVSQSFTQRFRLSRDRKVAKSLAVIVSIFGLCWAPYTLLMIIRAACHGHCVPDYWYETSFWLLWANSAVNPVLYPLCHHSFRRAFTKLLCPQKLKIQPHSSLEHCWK

| IC50 (human H3 receptor) | Structure (SMILES) | histamine-induced scratching behavior (number of scratching bouts) [1] |
| --- | --- | --- |
| 3 nM | CCOC(=O)C1CCCCC1NC(=O)C1(c2ccc(-c3ccc(CCN4CCC[C@H]4C)cc3)cc2)CCCC1 (stereo in doubt) [Compound 20, (1R,2S)-Ethyl 2-(1-(4′-(2-((R)-2-Methylpyrrolidin-1-yl)ethyl)biphenyl-4-yl)cyclopentanecarboxamido)cyclohexanecarboxylate] | – |
| 3.8 nM | C[C@@H]1CCCN1CCc1ccc(-c2ccc(C(=O)O)cc2)cc1 [Compound 1, (R)-4′-(2-(2-Methylpyrrolidin-1-yl)ethyl)biphenyl-4-carboxylic Acid] | – |
| 8.1 nM | C[C@@H]1CCCN1CCc1ccc(-c2ccc(CC(=O)O)cc2)cc1 [Compound 2, (R)-2-(4′-(2-(2-Methylpyrrolidin-1-yl)ethyl)biphenyl-4-yl)acetic Acid] | – |
| 0.67 nM | CCOC(=O)COCc1ccc(-c2ccc(CCN3CCC[C@H]3C)cc2)cc1 [Compound 4, (R)-Ethyl 2-((4′-(2-(2-Methylpyrrolidin-1-yl)ethyl)biphenyl-4-yl)methoxy)acetate] | – |
| 5.5 nM | C[C@@H]1CCCN1CCc1ccc(-c2ccc(COCC(=O)O)cc2)cc1 [Compound 5, (R)-2-((4′-(2-(2-Methylpyrrolidin-1-yl)ethyl)biphenyl-4-yl)methoxy)acetic Acid] | – |
| 0.93 nM | C[C@@H]1CCCN1CCc1ccc(-c2ccc(CCn3cnnn3)cc2)cc1 [Compound 7, (R)-1-(2-(4′-(2-(2-Methylpyrrolidin-1-yl)ethyl)biphenyl-4-yl)ethyl)-1H-tetrazole] | – |
| 1.2 nM | C[C@@H]1CCCN1CCc1ccc(-c2ccc(CCn3ncnn3)cc2)cc1 [Compound 8, (R)-2-(2-(4′-(2-(2-Methylpyrrolidin-1-yl)ethyl)biphenyl-4-yl)ethyl)-2H-tetrazole] | – |
| 1.1 nM | COC(=O)CCc1ccc(-c2ccc(CCN3CCC[C@H]3C)cc2)cc1 [Compound 9, (R)-Methyl 3-(4′-(2-(2-Methylpyrrolidin-1-yl)ethyl)biphenyl-4-yl)propanoate] | – |
| 3.1 nM | C[C@@H]1CCCN1CCc1ccc(-c2ccc(C(C)(C)C(=O)O)cc2)cc1 [Compound 10, (R)-2-Methyl-2-(4′-(2-(2-methylpyrrolidin-1-yl)ethyl)biphenyl-4-yl)propanoic Acid] | – |
| 1.8 nM | CCOC(=O)CCc1ccc(-c2ccc(CCN3CCC[C@H]3C)cc2)cc1 [Compound 11, (R)-Ethyl 3-(4′-(2-(2-Methylpyrrolidin-1-yl)ethyl)biphenyl-4-yl)propanoate] | effectively inhibit histamine-induced pruritus; also recorded: inhibit histamine-induced scratching behavior |
| 0.95 nM | C[C@@H]1CCCN1CCc1ccc(-c2ccc(CCC(=O)NC(C)(C)C(=O)OC(C)(C)C)cc2)cc1 [Compound 12, (R)-tert-Butyl 2-Methyl-2-(3-(4′-(2-(2-methylpyrrolidin-1-yl)ethyl)biphenyl-4-yl)propanamido)propanoate] | – |
| 2.1 nM | C[C@H](NC(=O)CCc1ccc(-c2ccc(CCN3CCC[C@H]3C)cc2)cc1)C(=O)OC(C)(C)C [Compound 13, (S)-tert-Butyl 2-(3-(4′-(2-((R)-2-Methylpyrrolidin-1-yl)ethyl)biphenyl-4-yl)propanamido)propanoate] | – |
| 1.5 nM | COC(=O)CCCNC(=O)C1(c2ccc(-c3ccc(CCN4CCC[C@H]4C)cc3)cc2)CCCC1 [Compound 16, (R)-Methyl 4-(1-(4′-(2-(2-Methylpyrrolidin-1-yl)ethyl)biphenyl-4-yl)cyclopentanecarboxamido)butanoate] | – |
| 0.79 nM | C[C@H](NC(=O)CCc1ccc(-c2ccc(CCN3CCC[C@H]3C)cc2)cc1)C(=O)O [Compound 18, (S)-2-(3-(4′-(2-((R)-2-methylpyrrolidin-1-yl)ethyl)biphenyl-4-yl)propanamido)propanoic acid] | – |
| 0.99 nM | COC(=O)CNC(=O)CCc1ccc(-c2ccc(CCN3CCC[C@H]3C)cc2)cc1 [Compound 24, (R)-Methyl 2-(3-(4′-(2-(2-Methylpyrrolidin-1-yl)ethyl)biphenyl-4-yl)propanamido)acetate] | – |
| 3.3 nM | COC(=O)C1(c2ccc(-c3ccc(CCN4CCC[C@H]4C)cc3)cc2)CCCC1 [Compound 25, (R)-Methyl 1-(4′-(2-(2-Methylpyrrolidin-1-yl)ethyl)biphenyl-4-yl)cyclopentanecarboxylate] | – |
| 3.8 nM | C[C@@H]1CCCN1CCc1ccc(-c2ccc(CCC(=O)NCC(=O)OC(C)(C)C)cc2)cc1 [Compound 26, (R)-tert-Butyl 2-(3-(4′-(2-(2-Methylpyrrolidin-1-yl)ethyl)biphenyl-4-yl)propanamido)acetate] | – |
| 1.9 nM | COC(=O)CNC(=O)C1(c2ccc(-c3ccc(CCN4CCC[C@H]4C)cc3)cc2)CCCC1 [Compound 27, (R)-Methyl 2-(1-(4′-(2-(2-Methylpyrrolidin-1-yl)ethyl)biphenyl-4-yl)cyclopentanecarboxamido)acetate] | – |
| 2.1 nM | C[C@@H]1CCCN1CCc1ccc(-c2ccc(C3(C(=O)NCCCC(=O)O)CCCC3)cc2)cc1 [Compound 33, (R)-4-(1-(4′-(2-(2-Methylpyrrolidin-1-yl)ethyl)biphenyl-4-yl)cyclopentanecarboxamido)butanoic Acid] | – |
| 0.96 nM | CCOC(=O)C1CCN(C(=O)CCc2ccc(-c3ccc(CCN4CCC[C@H]4C)cc3)cc2)CC1 [Compound 35, (R)-Ethyl 1-(3-(4′-(2-(2-Methylpyrrolidin-1-yl)ethyl)biphenyl-4-yl)propanoyl)piperidine-4-carboxylate] | – |
| 0.78 nM | C[C@@H]1CCCN1CCc1ccc(-c2ccc(Cc3nnn[nH]3)cc2)cc1 [Compound 37, (R)-5-((4′-(2-(2-Methylpyrrolidin-1-yl)ethyl)biphenyl-4-yl)methyl)-1H-tetrazole] | – |
| 1.2 nM | COC(=O)C(C)(C)NC(=O)c1ccc(-c2ccc(CCN3CCC[C@H]3C)cc2)cc1 [Compound 38, (R)-Methyl 2-Methyl-2-(4′-(2-(2-methylpyrrolidin-1-yl)ethyl)biphenyl-4-ylcarboxamido)propanoate] | – |
| 2.5 nM | C[C@@H]1CCCN1CCc1ccc(-c2ccc(C(=O)NCCC(=O)O)cc2)cc1 [Compound 43, (R)-3-(4′-(2-(2-Methylpyrrolidin-1-yl)ethyl)biphenyl-4-ylcarboxamido)propanoic Acid] | – |
| 6.9 nM | C[C@@H]1CCCN1CCc1ccc(-c2ccc(CCc3nnn[nH]3)cc2)cc1 [Compound 44, (R)-5-(2-(4′-(2-(2-Methylpyrrolidin-1-yl)ethyl)biphenyl-4-yl)ethyl)-1H-tetrazole] | – |
| 0.97 nM | C[C@@H]1CCCN1CCc1ccc(-c2ccc(CCCC(=O)O)cc2)cc1 [Compound 45, (R)-4-(4′-(2-(2-Methylpyrrolidin-1-yl)ethyl)biphenyl-4-yl)butanoic Acid] | – |
